Tests used:
[1] = test system: Zap-70 mutants in P116 cells; test: Inhibition of IL-2 production by TKI at two concentrations, Zap-70 mutants versus WT; settings: 500 nM and 1 or […], 24 h and 48 h
wild type Zap-70 = molecular target: T1, wild type Zap-70 (Homo sapiens, UniProt P43403); settings: Karaman et al.; cited from earlier work
T1 sequence (P43403 1-619): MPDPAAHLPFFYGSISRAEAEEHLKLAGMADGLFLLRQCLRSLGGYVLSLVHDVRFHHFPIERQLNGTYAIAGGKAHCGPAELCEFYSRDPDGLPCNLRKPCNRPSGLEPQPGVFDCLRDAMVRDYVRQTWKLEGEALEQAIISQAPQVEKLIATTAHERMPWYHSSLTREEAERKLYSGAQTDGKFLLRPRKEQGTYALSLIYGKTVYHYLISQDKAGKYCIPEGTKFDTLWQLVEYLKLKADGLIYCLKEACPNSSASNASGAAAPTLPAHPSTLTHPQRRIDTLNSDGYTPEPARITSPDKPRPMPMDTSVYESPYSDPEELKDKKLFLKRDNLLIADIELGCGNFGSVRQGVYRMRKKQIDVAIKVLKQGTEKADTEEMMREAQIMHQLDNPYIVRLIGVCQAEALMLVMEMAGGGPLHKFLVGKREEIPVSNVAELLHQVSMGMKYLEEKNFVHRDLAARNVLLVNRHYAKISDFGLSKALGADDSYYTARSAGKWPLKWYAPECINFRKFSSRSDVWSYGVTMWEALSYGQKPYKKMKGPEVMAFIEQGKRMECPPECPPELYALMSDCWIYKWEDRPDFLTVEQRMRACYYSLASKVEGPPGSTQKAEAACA

Compound	inhibition in production of IL-2 in mutants compared to Zap-70 WT [1]	inhibitory effect on the wild type Zap-70 (wild type Zap-70)
C=CC(=O)Nc1cccc(Nc2nc(Nc3ccc(N4CCN(C(C)=O)CC4)cc3OC)ncc2C(F)(F)F)c1 [CO-1686]	No significantly different inhibition	
C#Cc1cccc(Nc2ncnc3cc(OCCOC)c(OCCOC)cc23)c1 [Erlotinib]	higher in mutants than WT	
CS(=O)(=O)CCNCc1ccc(-c2ccc3ncnc(Nc4ccc(OCc5cccc(F)c5)c(Cl)c4)c3c2)o1 [Lapatinib]	increase of cell response	no or little inhibitory effect
CCOc1cc2ncc(C#N)c(Nc3ccc(OCc4ccccn4)c(Cl)c3)c2cc1NC(=O)/C=C/CN(C)C [Neratinib]	No significantly different inhibition	
Crizotinib	increase of cell response	

From patent publication US12478626B2, “Kinase mutants and uses thereof” (SIB Swiss Institute of Bioinformatics, priority 2017, dated 2025)
